Assay results published in US20160016958A1, “Method of Labeling Flumazenil with F-18 and Separating and Purifying F-18-Flumazenil” (Institute of Nuclear Energy Research, Atomic Energy …, priority 2014, published 2016).

Experiment: lipophilicity test, octanol/PBS partition with gamma counter
Assay type: physicochemical

Compound: CCOC(=O)c1ncn2c1CN(C)C(=O)c1cc([18F])ccc1-2 [F-18-flumazenil]
- log P value: 1.49±0.12
